Assay results reported in patent US20080234258A1, “Dihydroxyanthraquinones and Their Use” (priority 2005, published 2008).

Legend:
[1] = system: LPS-induced TNFα secretion; experiment: LPS Mouse Assay, serum TNFα by ELISA; type: in vivo; details: Balb C ByJ mice, 1 mg/kg LPS i.p., serum 2 hours after LPS
Description: (§1) 7 week old Balb C ByJ mice (24-28 g) were administered, either by oral (10 ml/kg) administration, with vehicle or test article. 30 minutes later, these animals were challenged with an intraperitoneal injection of 1 mg/kg LPS. 2 hours after LPS challenge, blood samples were collected under light isoflurane anaesthesia into normal tubes by retro-orbital puncture. Samples were allowed to clot at room temperature and then spun at 6000 g for 3 min at 4° C. Serum was stored at −20° C. until use. Serum TNFα and IL-10 levels were analysed in duplicate by ELISA technique.

IL-1β = experiment: LPS Mouse Assay, IL-1β levels; type: in vivo; details: 3, 10 and 30 mg/kg oral, Balb C ByJ mice, 1 mg/kg LPS i.p., serum 2 hours after LPS
Description: as §1

[2] = system: intra-plantar carrageenan induced paw oedema; experiment: Carrageenan Paw Assay; type: in vivo; details: 0.3 to 30 mg/kg oral gavage, male Wistar rats, paw measured 1-5 hours after carrageenan
Description: Fasted (18 hour) male Wistar rats (105-130 g) were weighed and a basal mercury plethysmometer reading was taken of the right hind paw by submerging the paw in the mercury up to the tibiotarsal joint. Subsequently, vehicles, reference items and test articles were administered by oral gavage (10 ml/kg). 30 minutes after treatment, 0.1 ml of 2% carrageenan in 0.9% saline was injected into the subplanatar area of the right hind paw. The right paw was measured again with the plethysmometer, at 1, 2, 3, 4 and 5 hours after carrageenan administration.

TIMP-1 = details: rabbit articular chondrocytes; cited from earlier work
[3] = system: pro-MMPs-1, -3, -9 and -13; details: rabbit articular chondrocytes; cited from earlier work
IL-1β and TNFα = details: human osteoarthritic synovium and chondrocytes; cited from earlier work
cytokine gene expression = details: model of lupus nephritis; cited from earlier work

O=C1c2cccc(OC(=O)C3CCOCC3)c2C(=O)c2c(OC(=O)C3CCOCC3)cc(C(=O)N3CCOCC3)cc21 [Example 1, 1,8-bis(tetrahydropyran-4-carbonyloxy)-3-(morpholine-4-carbonyl)-9,10-dioxo-9,10-dihydroanthracene]
effect on LPS-induced TNFα secretion ([1]; 30 mg/kg oral): produced an effect | IL-1β levels from LPS stimulus (IL-1β): reduced IL-1β levels | effect in carrageenan induced paw oedema model of inflammation [2]: dose-dependant effect

CCNC(=O)c1cc(OC(=O)C2CCOCC2)c2c(c1)C(=O)c1cccc(OC(=O)C3CCOCC3)c1C2=O [Example 2, 1,8-bis(tetrahydropyran-4-carbonyloxy)-3-ethylcarbamoyl-9,10-dioxo-9,10-dihydroanthracene]
effect on LPS-induced TNFα secretion ([1]; 10 mg/kg oral): inhibited

COCCOC(=O)c1cc(OC(=O)C2CCOCC2)c2c(c1)C(=O)c1cccc(OC(=O)C3CCOCC3)c1C2=O [Example 3, 4,5-bis(tetrahydropyran-4-carbonyloxy)-9,10-dioxo-9,10-dihydroanthracene-2-carboxylic acid, 2-methoxyethyl ester]
effect on LPS-induced TNFα secretion ([1]; 30 mg/kg oral): produced an effect

CCOC(=O)c1cc(OC(=O)C2CCOCC2)c2c(c1)C(=O)c1cccc(OC(=O)C3CCOCC3)c1C2=O [Example 4, 4,5-bis(tetrahydropyran-4-carbonyloxy)-9,10-dioxo-9,10-dihydroanthracene-2-carboxylic acid, ethyl ester]
effect in carrageenan induced paw oedema model of inflammation [2]: dose-dependant effect

CC(=O)Oc1cccc2c1C(=O)c1c(OC(C)=O)cc(C(=O)O)cc1C2=O [diacerein]
production of tissue inhibitor of metalloproteinases (TIMP-1) (TIMP-1): upregulating | production of pro-matrix metalloproteinases (pro-MMPs-1, -3, -9 and -13) [3]: down-regulate

O=C(O)c1cc(O)c2c(c1)C(=O)c1cccc(O)c1C2=O [rhein, 1,8-dihydroxyanthraquinone-3-carboxylic acid]
production of tissue inhibitor of metalloproteinases (TIMP-1) (TIMP-1): upregulating | production of pro-inflammatory cytokines (IL-1β and TNFα) (IL-1β and TNFα): inhibit | cytokine gene expression (cytokine gene expression): inhibit | production of pro-matrix metalloproteinases (pro-MMPs-1, -3, -9 and -13) [3]: down-regulate
